Measurements reported in PubChem BioAssay AID1963425 (Molecular Pharmacology Branch, DTP, NCI, 2024).
Several values for one entry are separate records, joined by “and”; a condition that tells them apart may be missing. Equal entries are not always repeated.

Test system: 323965-272-R-J2-PDC complex spheroid growth, % test/control
Test: Anticancer human tumor 323965-272-R-J2-PDC patient-derived pancreatic carcinoma cell line growth inhibition [Asc]
Settings: for viability, T/C: stronger effect = lower value
Procedure, shortened: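 Concentration series start at each agent's clinical Cmax, or at 10 microM when none is established, and drop in half-log steps; agents are applied alone or together to complex spheroids built with HUVEC and hMSC.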

[1] = curve of first compound, second compound 0.0316 µM
[2] = curve of first compound, second compound 0.1 µM
[3] = curve of first compound, second compound 0.316 µM
[4] = curve of first compound, second compound 1 µM
[5] = curve of first compound, second compound 3.16 µM
[6] = curve of first compound, second compound 10 µM
[7] = second compound 0.0316 µM, first compound 0.0316 µM
[8] = second compound 0.0316 µM, first compound 0.1 µM
[9] = second compound 0.0316 µM, first compound 0.316 µM
[10] = second compound 0.0316 µM, first compound 1 µM
[11] = second compound 0.1 µM, first compound 0.0316 µM
[12] = second compound 0.1 µM, first compound 0.1 µM
[13] = second compound 0.1 µM, first compound 0.316 µM
[14] = second compound 0.1 µM, first compound 1 µM
[15] = second compound 0.316 µM, first compound 0.0316 µM
[16] = second compound 0.316 µM, first compound 0.1 µM
[17] = second compound 0.316 µM, first compound 0.316 µM
[18] = second compound 0.316 µM, first compound 1 µM
[19] = second compound 1 µM, first compound 0.0316 µM
[20] = second compound 1 µM, first compound 0.1 µM
[21] = second compound 1 µM, first compound 0.316 µM
[22] = second compound 1 µM, first compound 1 µM
[23] = second compound 3.16 µM, first compound 0.0316 µM
[24] = second compound 3.16 µM, first compound 0.1 µM
[25] = second compound 3.16 µM, first compound 0.316 µM
[26] = second compound 3.16 µM, first compound 1 µM
[27] = second compound 10 µM, first compound 0.0316 µM
[28] = second compound 10 µM, first compound 0.1 µM
[29] = second compound 10 µM, first compound 0.316 µM
[30] = second compound 10 µM, first compound 1 µM
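Further: compound exposure lasted 7 days starting three days after spheroid seeding.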
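Wherever viability, T/C is given: 100% = DMSO vehicle control wells with viability set relative to vehicle.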

For `O=C(c1cc(Cc2n[nH]c(=O)c3ccccc23)ccc1F)N1CCN(C(=O)C2CC2)CC1` + Cc1c(S(C)(=O)=O)c(-c2cc(F)cc(N3CCN(c4ccc(NS(=O)(=O)c5ccc(NC(CCN6CCC(C(=O)OCCCP(=O)(O)O)CC6)CSc6ccccc6)c(S(=O)(=O)C(F)(F)F)c5)cc4)CC3)c2)c(-c2ccc(Cl)cc2)n1C(C)C, the IC50 [1] was > 10 µM, the IC50 [2] was > 10 µM and the IC50 [3] was > 10 µM. For the same compound, the IC50 [4] was > 10 µM, the IC50 [5] was > 10 µM and the IC50 [6] was > 10 µM. It also gave a viability, T/C [7] of 87.5%, a viability, T/C [8] of 92.7% and a viability, T/C [9] of 95.7%. The viability, T/C [10] was 98.9%, the viability, T/C (second compound 0.0316 µM, first compound 3.16 µM) was 98.3% and the viability, T/C (second compound 0.0316 µM, first compound 10 µM) was 89%. It also gave a viability, T/C [11] of 103%, a viability, T/C [12] of 93% and a viability, T/C [13] of 98.1%. For the same compound, the viability, T/C [14] was 91.2%, the viability, T/C (second compound 0.1 µM, first compound 3.16 µM) was 95% and the viability, T/C (second compound 0.1 µM, first compound 10 µM) was 88.2%. It also gave a viability, T/C [15] of 92.4%, a viability, T/C [16] of 90.5% and a viability, T/C [17] of 92.8%. The viability, T/C [18] was 87.7%, the viability, T/C (second compound 0.316 µM, first compound 3.16 µM) was 91.6% and the viability, T/C (second compound 0.316 µM, first compound 10 µM) was 74.7%. For the same compound, the viability, T/C [19] was 85.6%, the viability, T/C [20] was 79.3% and the viability, T/C [21] was 83.8%. For the same compound, the viability, T/C [22] was 84.2%, the viability, T/C (second compound 1 µM, first compound 3.16 µM) was 80.8% and the viability, T/C (second compound 1 µM, first compound 10 µM) was 72.2%. The viability, T/C [23] was 85.9%, the viability, T/C [24] was 76.5% and the viability, T/C [25] was 78.6%. For the same compound, the viability, T/C [26] was 74.2%, the viability, T/C (second compound 3.16 µM, first compound 3.16 µM) was 78.4% and the viability, T/C (second compound 3.16 µM, first compound 10 µM) was 60.2%. It also gave a viability, T/C [27] of 72.4%, a viability, T/C [28] of 75.2% and a viability, T/C [29] of 64.9%. The viability, T/C [30] was 71.1%, the viability, T/C (second compound 10 µM, first compound 3.16 µM) was 81.1% and the viability, T/C (second compound 10 µM, first compound 10 µM) was 51.8%.
For `Cn1ncnc1[C@H]1c2n[nH]c(=O)c3cc(F)cc(c23)N[C@@H]1c1ccc(F)cc1`, the viability, T/C (compound 0.000316 µM) was 103% and 109% and 106%, the viability, T/C (compound 0.001 µM) was 96.5% and 103% and 99.3% and the viability, T/C (compound 0.00316 µM) was 103% and 104% and 99.2%. The viability, T/C (compound 0.01 µM) was 96.4% (2×) and 120%, the viability, T/C (compound 0.0316 µM) was 103% and 95.3% and 106% and the viability, T/C (compound 0.1 µM) was 89.7% and 95.6% and 94.9%. For the same compound, the IC50 (curve of compound) was > 0.1 µM.
In the case of `C#Cc1c(F)ccc2cc(O)cc(-c3ncc4c(N5CC6CCC(C5)N6)nc(OCC56CCCN5CC(F)C6)nc4c3F)c12` (stereo not drawn) + CCN1C(C(=O)NC23CCC(C(=O)O)(CC2)CC3)C(c2cccc(Cl)c2F)C2(C(=O)Nc3cc(Cl)ccc32)C12CCCCC2, the IC50 (curve of first compound, second compound 0.00949 µM) is reported as > 10 µM, the IC50 (curve of first compound, second compound 0.03 µM) is reported as > 10 µM and the IC50 (curve of first compound, second compound 0.0949 µM) is reported as > 10 µM. For the same compound, the IC50 (curve of first compound, second compound 0.3 µM) was > 10 µM, the IC50 (curve of first compound, second compound 0.949 µM) was > 10 µM and the IC50 (curve of first compound, second compound 3 µM) was > 10 µM. It also gave a viability, T/C (second compound 0.00949 µM, first compound 0.0316 µM) of 100%, a viability, T/C (second compound 0.00949 µM, first compound 0.1 µM) of 100% and a viability, T/C (second compound 0.00949 µM, first compound 0.316 µM) of 98.2%. For the same compound, the viability, T/C (second compound 0.00949 µM, first compound 1 µM) was 92.6%, the viability, T/C (second compound 0.00949 µM, first compound 3.16 µM) was 81.2% and the viability, T/C (second compound 0.00949 µM, first compound 10 µM) was 59.4%. It also gave a viability, T/C (second compound 0.03 µM, first compound 0.0316 µM) of 107%, a viability, T/C (second compound 0.03 µM, first compound 0.1 µM) of 102% and a viability, T/C (second compound 0.03 µM, first compound 0.316 µM) of 102%. For the same compound, the viability, T/C (second compound 0.03 µM, first compound 1 µM) was 106%, the viability, T/C (second compound 0.03 µM, first compound 3.16 µM) was 83.8% and the viability, T/C (second compound 0.03 µM, first compound 10 µM) was 63.1%. It also gave a viability, T/C (second compound 0.0949 µM, first compound 0.0316 µM) of 104%, a viability, T/C (second compound 0.0949 µM, first compound 0.1 µM) of 108% and a viability, T/C (second compound 0.0949 µM, first compound 0.316 µM) of 94.1%. The viability, T/C (second compound 0.0949 µM, first compound 1 µM) was 88.9%, the viability, T/C (second compound 0.0949 µM, first compound 3.16 µM) was 70.8% and the viability, T/C (second compound 0.0949 µM, first compound 10 µM) was 64.2%. It also gave a viability, T/C (second compound 0.3 µM, first compound 0.0316 µM) of 105%, a viability, T/C (second compound 0.3 µM, first compound 0.1 µM) of 110% and a viability, T/C (second compound 0.3 µM, first compound 0.316 µM) of 112%. The viability, T/C (second compound 0.3 µM, first compound 1 µM) was 91.9%, the viability, T/C (second compound 0.3 µM, first compound 3.16 µM) was 78.6% and the viability, T/C (second compound 0.3 µM, first compound 10 µM) was 59.8%. It also gave a viability, T/C (second compound 0.949 µM, first compound 0.0316 µM) of 101%, a viability, T/C (second compound 0.949 µM, first compound 0.1 µM) of 104% and a viability, T/C (second compound 0.949 µM, first compound 0.316 µM) of 102%. It also gave a viability, T/C (second compound 0.949 µM, first compound 1 µM) of 89.7%, a viability, T/C (second compound 0.949 µM, first compound 3.16 µM) of 79.3% and a viability, T/C (second compound 0.949 µM, first compound 10 µM) of 64.8%. For the same compound, the viability, T/C (second compound 3 µM, first compound 0.0316 µM) was 102%, the viability, T/C (second compound 3 µM, first compound 0.1 µM) was 102% and the viability, T/C (second compound 3 µM, first compound 0.316 µM) was 97.8%. The viability, T/C (second compound 3 µM, first compound 1 µM) was 84.7%, the viability, T/C (second compound 3 µM, first compound 3.16 µM) was 63.1% and the viability, T/C (second compound 3 µM, first compound 10 µM) was 67.9%.
`CCN1CCN(Cc2ccc(Nc3ncc(F)c(-c4cc(F)c5nc(C)n(C(C)C)c5c4)n3)nc2)CC1` + Cc1c(S(C)(=O)=O)c(-c2cc(F)cc(N3CCN(c4ccc(NS(=O)(=O)c5ccc(NC(CCN6CCC(C(=O)OCCCP(=O)(O)O)CC6)CSc6ccccc6)c(S(=O)(=O)C(F)(F)F)c5)cc4)CC3)c2)c(-c2ccc(Cl)cc2)n1C(C)C was tested, and the IC50 [1] was > 1 µM, the IC50 [2] was > 1 µM and the IC50 [3] was > 1 µM. The IC50 [4] was > 1 µM, the IC50 [5] was > 1 µM and the IC50 [6] was > 1 µM. For the same compound, the viability, T/C (second compound 0.0316 µM, first compound 0.00316 µM) was 110%, the viability, T/C (second compound 0.0316 µM, first compound 0.01 µM) was 98.8% and the viability, T/C [7] was 106%. It also gave a viability, T/C [8] of 90.4%, a viability, T/C [9] of 70.5% and a viability, T/C [10] of 67.7%. For the same compound, the viability, T/C (second compound 0.1 µM, first compound 0.00316 µM) was 102%, the viability, T/C (second compound 0.1 µM, first compound 0.01 µM) was 109% and the viability, T/C [11] was 95.1%. It also gave a viability, T/C [12] of 82.5%, a viability, T/C [13] of 70.7% and a viability, T/C [14] of 73.6%. For the same compound, the viability, T/C (second compound 0.316 µM, first compound 0.00316 µM) was 103%, the viability, T/C (second compound 0.316 µM, first compound 0.01 µM) was 102% and the viability, T/C [15] was 100%. The viability, T/C [16] was 81%, the viability, T/C [17] was 72.5% and the viability, T/C [18] was 78.1%. For the same compound, the viability, T/C (second compound 1 µM, first compound 0.00316 µM) was 102%, the viability, T/C (second compound 1 µM, first compound 0.01 µM) was 93.1% and the viability, T/C [19] was 84.2%. For the same compound, the viability, T/C [20] was 76.6%, the viability, T/C [21] was 72.8% and the viability, T/C [22] was 70.3%. For the same compound, the viability, T/C (second compound 3.16 µM, first compound 0.00316 µM) was 83.9%, the viability, T/C (second compound 3.16 µM, first compound 0.01 µM) was 86.2% and the viability, T/C [23] was 77.8%. It also gave a viability, T/C [24] of 65.8%, a viability, T/C [25] of 67.5% and a viability, T/C [26] of 61.2%. It also gave a viability, T/C (second compound 10 µM, first compound 0.00316 µM) of 76.4%, a viability, T/C (second compound 10 µM, first compound 0.01 µM) of 74.4% and a viability, T/C [27] of 64.1%. The viability, T/C [28] was 66.5%, the viability, T/C [29] was 71.3% and the viability, T/C [30] was 70.3%.
